Laboratory results taken from US20220117929A1, “METHOD FOR PREVENTING OR TREATING HIGH-GRADE SEROUS CARCINOMA” (Buddhist Tzu Chi Medical Foundation, priority 2020, published 2022).
Values after ≈ are worked out from the molar mass of the structure shown. Where two headings read alike, the source gives them in different places.

What was measured:
ALDH^+ kuramochi cells [1] = experiment: XTT viability, BP combined with cisplatin or paclitaxel; assay type: cell-based, human; details: 72 hours
Description: To determine whether BP affects the toxicity of these chemotherapeutic agents, BP was added to cisplatin and paclitaxel treatment of ovarian cancer cells in vitro. ALDH^+ kuramochi cells (2500 ALDH^+ cells/well) in a 96-well plate were treated with BP (25 μg/ml) in combination with cisplatin (0, 5, or 10 μM) or with paclitaxel (0, 10 or 50 nM). Each experiment was conducted in triplicate. Plates were incubated at 37° C. with 5% CO2 for 72 hours. Viable cells were counted by the XTT assay as describe above.

ALDH^+ kuramochi cells [2] = experiment: Boyden chamber (transwell) cell migration assay; assay type: cell-based, human; details: 48 hours, vs untreated cells
Description: For assessment of cell migration, kuramochi cells (5×10^4 cells) were seeded into the top well of a Boyden chamber (24-well transwell) with a pore size of 8 m (Costar, Corning Inc., Corning, N.Y., USA). The cells were allowed to migrate toward the lower well filled with the same culture medium with BP at a concentration of 100 or 200 μg/ml or without BP treatment. After 48 hours of migration, crystal violet (Sigma) was used to stain the migrated cells. The stained cells were counted using a bright-field microscope. Each experiment was repeated three times.

ALDH^+ kuramochi cells [3] = experiment: Matrigel-coated Boyden chamber invasion assay; assay type: cell-based, human; details: 24 hours, vs untreated cells
Description: For assessment of cell invasion, the invasion assays were carried out in Matrigel-coated Boyden chambers (filter pore size, 8 μM) in 24-well plates (BD). In the top wells, culture medium without serum was seeded with 5×10^4 cells. The bottom wells were added with medium containing 10% FBS and BP (0, 100, or 200 μg/ml). Treatments were added to both upper and lower chambers as indicated. After 24 hours, the free cells were removed gently with a cotton swab. The invading cells were fixed with 4% formaldehyde and Giemsa stained. The slides were air-dried and photographed, and the cells were counted.

[4] = system: ALDH^+ kuramochi xenograft; experiment: Western blot of caspases in xenograft tumors; assay type: in vivo, mice; details: xenograft treated with BP vs control without BP
Description: (§1) Accordingly, the effect of BP on the apoptotic signaling pathway was further investigated by quantifying the amount of activated caspase proteins by western blot analysis. Specifically, ALDH^+ kuramochi cells were treated with BP (at 100 μg/ml for 48 hours) and lysed. The cell lysates were loaded onto a gradient 5-20% sodium dodecyl sulfate-polyacrylamide gradient gel. After electrophoretic separation, the proteins were transferred to a polyvinylidene difluoride membrane (Bio-Rad). The membrane was blocked at room temperature in a solution of 3% non-fat dry milk in PBS and 0.1% Tween-20 and then rinsed in PBS/0.1% Tween-20. Blots were incubated with diluted solutions of polyclonal anti-caspase 3 and 8, or anti-cleaved caspase 3, 7, 8, or 9 antibodies (1:200, St. John's Lab, London, UK) and treated with 1:5000 diluted anti-rabbit immunoglobulin G horseradish peroxidase (HRP) for staining (Amersham GE, Taipei, Taiwan). Beta-actin and tubulin proteins (Santa Cruz Biotechnology, Santa Cruz, Calif., USA) were used as internal controls. HRP signals were detected using an electrochemiluminescence kit (Promega, Fitchburg, Wis., USA).
(§2) With BP treatment (200 mg/kg), the tumor volumes were smaller than those of control mice treated with the vehicle starting from day 11 to day 26 (p<0.001), as shown in FIG. 7A. […] TUNEL assay was also carried out to evaluate cell viability in the xenograft tumors, using the reagents and procedures as described above but with tumor tissue fixed in formalin and embedded in paraffin and sectioned with a 3 m of thickness. Also, protein levels of cleaved caspase 3, caspase 9, and caspase 7 were examined using western blots as described above to examine apoptotic pathway activation in xenograft tumors.

ALDH^+ kuramochi cells [5] = experiment: XTT cell viability assay, ALDH+ kuramochi cells (cancer stem cells); assay type: cell-based; details: Homo sapiens, 48 h, BP 0-400 μg/ml
Description: To evaluate and characterize the kuramochi cells, the expression of the cancer stem cell (CSC) marker, ALDH, was assessed using flow cytometry. Specifically, fluorescence-activated cell sorting (FACS) was used to isolate ALDH^+ cells from the kuramochi cell line. Then, the Aldefluor assay kit (Stem Cell Technologies, Cambridge, Mass., USA) was used to determine the ALDH activity. The activated Aldefluor reagent was used to trypsinized and incubated with cells for 50 min at 37° C. Cells were incubated with the inhibitor, N,N-diethylaminobenzaldehyde (DEAB), as control cells to identify for ALDH^+ and ALDH^− cell populations. […]
(§3) The half-maximal inhibitory concentration (IC50) of BP is determined in ALDH^+ and ordinary kuramochi cells. IC50 is determined by assessing the cell viability under different concentration of BP. For example, cell viability was determined by XTT assay (Biological Industries Ltd., Kibbutz Beit Haemek, Israel) following the instruction provided by the manufacturer. […] After 2-5 h of incubation at 37° C., plates were analyzed by spectrophotometry to determine the optical density of the solutions at a wavelength of 450 nm (reference wavelength, 650 nm) to determine viable cell number. […] The equation is expressed as follows: Y=d+(a−d)/(1+(X/c)^B), where Y is the response, and X is the concentration. […]

ALDH^+ kuramochi cells [6] = experiment: TUNEL apoptosis assay in cultured cells; assay type: cell-based, human; details: BP 200 μg/ml for 48 hours vs no BP, p<0.01
Description: (§4) The level of apoptosis was compared between ALDH^+ kuramochi cells with and without BP treatment using the terminal deoxynucleotidyl transferase dUTP nick end labeling (TUNEL) assay. TUNEL assay was carried out to evaluate cell apoptosis using a TUNEL Assay Kit (Roche, Ind., USA) according to the manufacturer's instructions. Specifically, ALDH^+ kuramochi cells were seeded with 1×10^5 cells in each well of 12-well culture plates. Cultured cells were allowed to attach for 24 hours, and then treated with 200 μg/ml of BP for 48 hours. Adherent tumor cells were fixed in 4% paraformaldehyde. TUNEL probes were used to detect breaks in DNA strands, followed by incubation in a permeabilization solution for 2 min on ice. Cells were washed twice in phosphate buffered saline (PBS) and the TUNEL reaction mixture was added, followed by incubation at 37° C. for 60 min in a humidified atmosphere in the dark. Samples were washed in PBS twice and observed under a fluorescence microscope.

ordinary kuramochi cells = experiment: XTT cell viability assay, ordinary kuramochi cells; assay type: cell-based; details: Homo sapiens
Description: Kuramochi cells is a high-grade serous ovarian carcinoma (HGSOC) cell line purchased from Japan Cell Bank. Gene expressions of this cell line was previously confirmed to be mimicking HGSOC (Domcke, S.; Sinha, R.; Levine, D. A.; Sander, C.; Schultz, N. Nat. Commun. 2013, 4, 2126). The cell line was maintained in Dulbecco's Modified Eagle Medium (DMEM; Sigma, St. Louis, Mo., USA) supplemented with 10% fetal bovine serum (FBS), 0.1% non-essential amino acids (NEAA), 2 mM L-glutamine, and 1% penicillin-streptomycin. The cells were incubated at 37° C. with 5% CO2.
as §3

[7] = system: ALDH^+ kuramochi xenograft; experiment: Subcutaneous xenograft tumor growth and histology in NOD-SCID mice; assay type: in vivo
Description: To investigate tumor growth in vivo, the subcutaneous xenograft model is used widely in the research and allows easy detection of tumor growth and size. Herein, human ovarian cancer xenografts were used to investigate the tumor-inhibiting effect of BP in mice. The animal experiment procedures were approved by the Animal Research and Care Committee of the Buddhist Tzu Chi General Hospital (106-48). All procedures were performed in compliance with the National Institutes Health Guide for the Care and Use of Laboratory Animals. Non-obese, diabetic-severe combined immune deficiency mice (NOD-SCID) (strain NOD.CB17-Prkdcscid/JTcu) purchased from Tzu Chi University were used for these experiments.
ALDH^+ kuramochi cells (1×10^6) were injected subcutaneously into the backs of 4 to 5-week-old female mice. After tumors had grown to a volume of 50 mm^3, mice were separated into two groups (control and treatment groups; n=6 in each group). Controls were treated with vehicle alone (10% dimethyl sulfoxide (DMSO), 20% ethanol in PBS), and the experimental group was treated with different doses of BP (100 or 200 mg/kg) for 5 days. Tumor dimensions (length and width) were measured with calipers, and the tumor volume was determined using the following formula: volume=½ (length×width^2). […] The morphology and cell density were observed and recorded.

[8] = system: ALDH^+ kuramochi xenograft; experiment: TUNEL assay of xenograft tumor tissue; assay type: in vivo, mice; details: BP 200 mg/kg, p<0.001
Description: as §4
as §2, with “Also, protein levels of cleaved caspase 3, caspase 9, and caspase 7 were examined using western blots as described above to examine apoptotic pathway activation in xenograft tumors.” left out

ALDH^+ kuramochi cells [9] = experiment: Western blot of cleaved caspases in cultured cells; assay type: cell-based, human; details: BP 100 μg/ml or 200 μg/ml, 48 hours
Source text: as §1, with “Specifically, ALDH^+ kuramochi cells were treated with BP (at 100 μg/ml for 48 hours) and lysed.” left out

Structure (SMILES): CCCC=C1OC(=O)c2ccccc21 [BP, n-butylidenephthalide]
- cell viability with cisplatin plus BP vs cisplatin without BP (ALDH^+ kuramochi cells [1]; BP 25 μg/ml with cisplatin 0, 5 or 10 μM, 5 μM p<0.05, 0 and 10 μM p<0.01): significantly lowered
- numbers of viable cells with paclitaxel plus BP vs paclitaxel without BP (ALDH^+ kuramochi cells [1]; BP 25 μg/ml with zero or low concentration of paclitaxel (0, 10 nM), p<0.01): significantly less
- migration of ALDH^+ cells (ALDH^+ kuramochi cells [2]; BP 100 μg/ml, p<0.01): significantly decreased
- migration of ALDH^+ cells (ALDH^+ kuramochi cells [2]; BP 200 μg/ml, p<0.001): significantly decreased
- invasion of ALDH^+ cells (ALDH^+ kuramochi cells [3]; BP 100 μg/ml, p<0.01): significantly decreased
- invasion of ALDH^+ cells (ALDH^+ kuramochi cells [3]; BP 200 μg/ml, p<0.001): significantly decreased
- protein level of caspase 7 in xenograft [4]: increased
- protein level of caspase 9 in xenograft [4]: increased
- protein level of cleaved caspase 3 in xenograft [4]: increased
- IC50 (ALDH^+ kuramochi cells [5]): 317 µg/mL (≈ 1690 µM)
- TUNEL^+ cells (ALDH^+ kuramochi cells [6]): Significantly more
- IC50 (ordinary kuramochi cells; 48 h of culture, BP 0-240 μg/ml, read-out: IC50 of BP for the ordinary kuramochi cells (figure legend)): 206 µg/mL (≈ 1100 µM)
- IC50 (ordinary kuramochi cells; 48 h of treatment, XTT, 4PL fit, read-out: IC50 of BP for ordinary kuramochi cells): 206 µg/mL (≈ 1100 µM)
- tumor volumes vs vehicle control ([7]; BP 200 mg/kg for 5 days, day 11 to day 26, p<0.001): smaller
- nuclei of xenograft tumors (H & E staining) vs control ([7]; BP-treated xenograft tumors): denser
- TUNEL^+ cells in xenograft tumors [8]: significantly more
- protein level of cleaved caspase 7 (ALDH^+ kuramochi cells [9]): increased
- protein level of cleaved caspase 8 (ALDH^+ kuramochi cells [9]): increased
- protein level of cleaved caspase 9 (ALDH^+ kuramochi cells [9]): increased
- protein level of cleaved caspase 3 (ALDH^+ kuramochi cells [9]; p<0.001): increased
